Test results taken from patent US20070112068A1, “Nitrile compound and its use in pest control” (priority 2003, published 2007).

Key:
Assay type in all cases: in vivo
[1] = tested on: Culex pipiens pallens; experiment: Experimental Example 25: electric mosquito mat, Culex pipiens pallens; details: electric mosquito mat (Formulation Example 18); 20 minutes exposure, after 24 hours
Procedure: (§1) An electric mosquito mat of the present compound (31) prepared according to Formulation Example 18 is set on a heater for an electric mosquito mat and then placed on the centre of the floor of a chamber having 70 cm (width)×70 cm (depth)×70 cm (height). After the electric mosquito mat is initiated to be heated with the heater, about 20 female imagoes of Culex pipiens pallens are released in the chamber. After 20 minutes, all test pests are collected, placed in a plastic cup together with absorbent cotton impregnated with 5% sugar water, and left at 25° C.

[2] = tested on: Periplaneta americana; experiment: Experimental Example 17: treated filter paper in paper box, Periplaneta americana; details: 0.1 ml of 5% (w/v) acetone solution on filter paper in paper box; after 7 days
Procedure: (§2) A 5% (w/v) solution of the present compound (31) in acetone was prepared. 0.1 ml of the solution was added dropwise onto a filter paper with 2 cm×2 cm and then air-dried. This filter paper was attached to the center of the inside bottom of a paper box having 10 cm (width)×2 cm (height)×7 cm (depth) with a two-sided tape. One hole of 2 mm in width and 2 cm in height was made through one side of this box. This box was placed in a plastic vat with 25 cm×20 cm×8 cm in height and therein 3 females and 3 males of Periplaneta americana were released. The inside wall of the plastic vat used in this experiment was coated with talc for preventing the escape of cockroaches. The plastic vat contained feed and water and left at 25° C. After 7 days, Periplaneta americana was observed and the death rate of the pest was calculated. This experiment was repeated two times.

[3] = tested on: Coptotermes formosanus; experiment: Experimental Example 12: topical application, Coptotermes formosanus; details: 0.2 μl of 0.005% (w/v) solution onto notum of thorax of ergates; after one day
Procedure: The present compound (31) was dissolved in a 0.05% (w/v) solution of Sudan red 7B in acetone so that the present compound concentration was 0.005% (w/v) to prepare an experimental pesticidal solution. Onto the notum of the thorax of ergates of Coptotermes formosanus, 0.2 μl of this experimental solution was added dropwise. After one day from treatment, the number of surviving pests was examined and the death rate of the pest was calculated.

[4] = tested on: Periplaneta fuliginosa; experiment: Experimental Example 16: treated filter paper in paper box, Periplaneta fuliginosa; details: 0.1 ml of 5% (w/v) acetone solution on filter paper in paper box; after 7 days
Procedure: as §2, with “5%” for “A 5%”, “(w/v) solutions” for “(w/v) solution”, “present compounds (23), (24) and” for “present compound”, “acetone were” for “acetone was”, “Periplaneta fuliginosa” for “Periplaneta americana”

[5] = tested on: Blattella germanica; experiment: Experimental Example 21: poison bait, Blattella germanica; details: poison bait: 3 ml of 0.5% by weight acetone solution per 3 g animal feed; 1 g bait; after 7 days
Procedure: 3 ml of a 0.5% by weight solution of the present compound (31) in acetone is added dropwise to 3 g of animal powdery feed, mixed thoroughly, and then air-dried to obtain a poison bait. 1 g of this poison bait is placed on an aluminum dish and the dish is placed in a plastic cup (860 mL) containing 20 imagoes (10 males and 10 females) of Blattella germanica. The pest is given water and kept at 25° C. After 7 days, the number of surviving Blattella germanica is examined and the activity of the poison bait is obtained.

[6] = tested on: Culex pipiens pallens; experiment: Experimental Example 26: liquid-absorbing wick-type heat-vaporizing product, Culex pipiens pallens; details: liquid-absorbing wick-type product (Formulation Example 19); 20 minutes exposure, after 24 hours
Description: as §1, with “A part of a liquid-absorbing wick-type heat-vaporizing pesticidal product” for “An electric mosquito mat”, “19” for “18”, “a liquid absorbing wick-type heat-vaporizing pesticide,” for “an electric mosquito mat”, “center” for “centre”, “part of a liquid-absorbing wick-type heat-vaporizing pesticidal product” for “electric mosquito mat”

[7] = tested on: Culex pipiens pallens; experiment: Experimental Example 10: treated filter paper in Peet-Grady chamber, Culex pipiens pallens; details: 5 ml of 1% (w/v) acetone solution on filter paper; 1.8 m Peet-Grady chamber; female imagoes; 1 hour exposure, 24 hours later
Procedure: A 1% (w/v) solution of the present compound (31) in acetone was prepared. Onto a filter paper with 10 cm×25 cm, 5 ml of the solution was added dropwise uniformly and then air-dried. This filter paper was suspended from the center of the ceiling center of a Peet-Grady chamber with 1.8 m (width)×1.8 m (depth)×1.8 m (height) and therein about 50 female imagoes of Culex pipiens pallens were released. After 1 hour, all test pests were collected, put into a plastic cup together with absorbent cotton impregnated with 5% sugar water, and then left at 25° C. After 24 hours, the number of surviving Culex pipiens pallens was examined and the death rate was calculated.

[8] = tested on: Blattella germanica; experiment: Experimental Example 13: direct oil spray in CSMA chamber, Blattella germanica; details: 1.5 ml of 0.025% (w/v) oil sprayed directly; after 3 days
Procedure: 7.5 mg of the present compound (31) was dissolved in 30 mL of a mixture of 90 parts by weight of Isopar M (isoparaffin, the registered trade name of Exxon Chemical) and 10 parts by weight of dichloromethane to prepare a 0.025% (w/v) oil. A plastic container (diameter: 9.5 cm, height: 4 cm, bottom part of 16 mesh wire) containing 10 imagoes (5 males and 5 females) of Blattella germanica was placed on the bottom of a CSMA chamber (width: 46 cm, depth: 46 cm, height: 70 cm).
1.5 ml of the oil was directly sprayed on test cockroaches from the upper side of the CSMA chamber. After 30 seconds from spraying, the container containing cockroaches was removed. All cockroaches were transferred to another clean plastic container (200 mL) and left together with feed and water at 25° C. After 3 days, the number of surviving Blattella germanica was examined and the death rate of the pest was calculated.

N#CC(C#N)(CCC(F)(F)F)CC(F)(F)C(F)(F)C(F)(F)C(F)F [(31)]
pesticidal effect [1]: pesticidal effect on Culex pipiens pallens is confirmed | death rate of the pest [2]: 100% | death rate of the pest [3]: 100% | death rate of the pest [4]: 100% | activity of the poison bait [5]: sufficient pesticidal effect | pesticidal effect [6]: pesticidal effect on Culex pipiens pallens is confirmed | death rate of the pest [7]: 86% | death rate of the pest [8]: 100%
